Measurements taken from ChEMBL document CHEMBL4392842, “Structural hybridization of pyrrolidine-based T-type calcium channel inhibitors and exploration of their analgesic effects in a neuropathic pain model” (Bioorg Med Chem Lett, 2019).
Calls of active or inactive are those of the source.

Tests used:
[1] = biological target: T1, Voltage-dependent T-type calcium channel subunit alpha-1H (Homo sapiens, UniProt O95180); test: Inhibition of Cav3.2 (unknown origin) assessed as reduction in KCl-induced increase in intracellular calcium level at 10 uM by fura-2 AM indicator based FDSS assay relative to control; format: cell-based
T1 sequence (O95180 whole entry): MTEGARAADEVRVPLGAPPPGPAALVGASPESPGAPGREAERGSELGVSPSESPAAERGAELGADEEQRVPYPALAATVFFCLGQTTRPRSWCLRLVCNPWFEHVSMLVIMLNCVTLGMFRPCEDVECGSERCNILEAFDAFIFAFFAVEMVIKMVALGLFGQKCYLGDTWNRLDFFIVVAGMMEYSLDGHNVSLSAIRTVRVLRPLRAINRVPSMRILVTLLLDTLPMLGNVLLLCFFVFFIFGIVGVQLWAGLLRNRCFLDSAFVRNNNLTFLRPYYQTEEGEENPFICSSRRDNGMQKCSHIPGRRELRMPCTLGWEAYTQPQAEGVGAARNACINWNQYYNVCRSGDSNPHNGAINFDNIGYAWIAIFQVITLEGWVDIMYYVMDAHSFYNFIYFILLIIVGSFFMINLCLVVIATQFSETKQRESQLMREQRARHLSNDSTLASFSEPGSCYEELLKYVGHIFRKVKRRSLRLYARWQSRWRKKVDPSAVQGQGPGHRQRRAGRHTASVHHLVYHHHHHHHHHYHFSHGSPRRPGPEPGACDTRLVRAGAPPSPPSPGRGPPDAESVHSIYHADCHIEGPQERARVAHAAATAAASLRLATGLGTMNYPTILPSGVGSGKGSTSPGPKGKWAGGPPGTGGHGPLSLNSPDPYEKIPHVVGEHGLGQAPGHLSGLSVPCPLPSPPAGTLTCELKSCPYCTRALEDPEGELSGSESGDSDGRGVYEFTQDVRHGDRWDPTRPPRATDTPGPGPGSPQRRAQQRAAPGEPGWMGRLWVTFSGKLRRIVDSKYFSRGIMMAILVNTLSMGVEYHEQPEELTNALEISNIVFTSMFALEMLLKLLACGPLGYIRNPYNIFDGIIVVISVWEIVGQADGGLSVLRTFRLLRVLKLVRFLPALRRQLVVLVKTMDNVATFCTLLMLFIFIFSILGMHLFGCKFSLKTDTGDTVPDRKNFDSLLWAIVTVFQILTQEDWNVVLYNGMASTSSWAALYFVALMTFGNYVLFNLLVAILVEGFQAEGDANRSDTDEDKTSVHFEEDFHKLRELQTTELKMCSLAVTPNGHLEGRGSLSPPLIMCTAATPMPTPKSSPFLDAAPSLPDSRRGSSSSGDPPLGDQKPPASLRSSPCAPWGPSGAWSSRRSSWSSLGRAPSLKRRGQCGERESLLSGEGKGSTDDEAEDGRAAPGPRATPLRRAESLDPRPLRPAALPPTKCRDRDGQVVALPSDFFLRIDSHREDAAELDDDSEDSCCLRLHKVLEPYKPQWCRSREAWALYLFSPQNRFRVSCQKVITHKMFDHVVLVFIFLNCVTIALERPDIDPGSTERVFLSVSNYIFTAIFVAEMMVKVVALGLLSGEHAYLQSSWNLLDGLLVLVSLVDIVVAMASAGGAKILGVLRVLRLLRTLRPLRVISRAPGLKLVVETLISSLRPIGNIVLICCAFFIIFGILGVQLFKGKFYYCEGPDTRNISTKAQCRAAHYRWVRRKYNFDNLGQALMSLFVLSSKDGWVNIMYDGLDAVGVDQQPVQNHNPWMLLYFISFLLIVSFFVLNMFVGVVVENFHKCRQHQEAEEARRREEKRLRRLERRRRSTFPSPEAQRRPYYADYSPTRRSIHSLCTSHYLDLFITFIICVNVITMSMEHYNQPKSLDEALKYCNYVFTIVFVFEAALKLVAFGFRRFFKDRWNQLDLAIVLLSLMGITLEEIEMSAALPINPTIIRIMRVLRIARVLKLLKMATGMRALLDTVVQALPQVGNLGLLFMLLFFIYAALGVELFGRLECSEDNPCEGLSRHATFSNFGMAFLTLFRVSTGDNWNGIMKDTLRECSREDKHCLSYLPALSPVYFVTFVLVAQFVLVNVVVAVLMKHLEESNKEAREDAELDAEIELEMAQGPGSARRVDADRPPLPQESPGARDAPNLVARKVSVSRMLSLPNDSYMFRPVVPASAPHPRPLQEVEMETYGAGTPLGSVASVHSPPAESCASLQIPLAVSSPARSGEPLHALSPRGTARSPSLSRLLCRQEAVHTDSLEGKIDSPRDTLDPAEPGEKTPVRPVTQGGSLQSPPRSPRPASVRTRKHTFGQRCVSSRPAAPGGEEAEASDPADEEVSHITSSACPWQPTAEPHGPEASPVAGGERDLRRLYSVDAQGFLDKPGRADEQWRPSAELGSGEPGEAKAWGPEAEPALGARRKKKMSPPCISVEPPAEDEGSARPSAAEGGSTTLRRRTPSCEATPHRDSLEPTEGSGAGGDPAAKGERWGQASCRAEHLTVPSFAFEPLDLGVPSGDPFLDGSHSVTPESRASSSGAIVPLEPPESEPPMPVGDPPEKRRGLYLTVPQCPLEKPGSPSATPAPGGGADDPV

[2] = biological target: T2, Voltage-dependent T-type calcium channel subunit alpha-1G (Homo sapiens, UniProt O43497); test: Inhibition of recombinant human Cav3.1 expressed in HEK293 cells assessed as reduction in KCl-induced increase in intracellular calcium level at 10 uM by fura-2 AM indicator based FDSS assay relative to control; format: cell-based
[3] = Stability in human liver microsomes assessed as parent compound remaining measured after 30 mins; format: ADME, Microsome; details: read-out: Stability
[4] = biological target: Voltage-gated inwardly rectifying potassium channel KCNH2 (Homo sapiens, UniProt Q12809); test: Inhibition of human ERG by whole-cell patch clamp method
Chain of Voltage-gated inwardly rectifying potassium channel KCNH2 (Q12809 whole entry): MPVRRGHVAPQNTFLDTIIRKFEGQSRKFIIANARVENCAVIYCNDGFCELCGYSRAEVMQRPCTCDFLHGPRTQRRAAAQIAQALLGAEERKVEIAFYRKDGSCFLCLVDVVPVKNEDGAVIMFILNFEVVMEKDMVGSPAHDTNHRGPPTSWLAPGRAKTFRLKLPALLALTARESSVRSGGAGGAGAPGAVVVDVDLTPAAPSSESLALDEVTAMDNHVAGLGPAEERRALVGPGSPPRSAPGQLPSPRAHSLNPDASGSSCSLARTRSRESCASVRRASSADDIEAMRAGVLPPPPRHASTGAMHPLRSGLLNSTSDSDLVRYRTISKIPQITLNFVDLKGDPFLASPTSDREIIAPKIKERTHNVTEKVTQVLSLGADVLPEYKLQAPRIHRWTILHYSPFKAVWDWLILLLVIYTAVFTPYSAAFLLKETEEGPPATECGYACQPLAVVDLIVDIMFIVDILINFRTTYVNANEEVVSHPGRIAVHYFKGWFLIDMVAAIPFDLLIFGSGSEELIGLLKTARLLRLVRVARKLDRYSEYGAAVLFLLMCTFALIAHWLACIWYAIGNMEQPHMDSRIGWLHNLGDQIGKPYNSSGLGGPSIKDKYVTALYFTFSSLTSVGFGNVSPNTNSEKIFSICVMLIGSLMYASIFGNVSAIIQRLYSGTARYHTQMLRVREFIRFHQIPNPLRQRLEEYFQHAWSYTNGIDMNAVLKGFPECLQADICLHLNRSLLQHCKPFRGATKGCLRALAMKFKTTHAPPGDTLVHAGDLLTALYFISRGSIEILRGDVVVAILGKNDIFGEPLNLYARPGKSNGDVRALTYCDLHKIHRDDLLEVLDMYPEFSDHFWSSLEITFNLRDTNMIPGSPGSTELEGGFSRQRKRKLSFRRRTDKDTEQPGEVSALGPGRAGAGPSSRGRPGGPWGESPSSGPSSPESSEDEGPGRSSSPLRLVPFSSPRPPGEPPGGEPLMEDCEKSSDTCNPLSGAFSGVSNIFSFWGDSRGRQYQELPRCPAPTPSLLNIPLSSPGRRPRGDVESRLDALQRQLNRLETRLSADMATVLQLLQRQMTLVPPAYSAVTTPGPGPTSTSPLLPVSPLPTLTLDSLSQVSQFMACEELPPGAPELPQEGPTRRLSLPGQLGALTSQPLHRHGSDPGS

Rattus norvegicus [5] = test: Analgesic activity in Sprague-Dawley rat L5/L6 spinal nerve ligation-induced neuropathic pain model assessed as decrease in paw withdrawal threshold to non-noxious cold stimuli at 100 mg/kg, po measured after 5 hrs; format: functional, organism-based
Rattus norvegicus [6] = test: Analgesic activity in Sprague-Dawley rat L5/L6 spinal nerve ligation-induced neuropathic pain model assessed as reversal of mechanical allodynia by measuring increase in paw withdrawal threshold to non-noxious mechanical stimuli at 100 mg/kg, po measured after 3 hrs relative to control; format: functional
CYP2C19 = CYP2C19 (Homo sapiens, UniProt P33261); test: Inhibition of CYP2C19 (unknown origin) assessed as residual activity at 10 uM relative to control; format: ADME; details: read-out: Activity
Chain of CYP2C19 (P33261 whole entry): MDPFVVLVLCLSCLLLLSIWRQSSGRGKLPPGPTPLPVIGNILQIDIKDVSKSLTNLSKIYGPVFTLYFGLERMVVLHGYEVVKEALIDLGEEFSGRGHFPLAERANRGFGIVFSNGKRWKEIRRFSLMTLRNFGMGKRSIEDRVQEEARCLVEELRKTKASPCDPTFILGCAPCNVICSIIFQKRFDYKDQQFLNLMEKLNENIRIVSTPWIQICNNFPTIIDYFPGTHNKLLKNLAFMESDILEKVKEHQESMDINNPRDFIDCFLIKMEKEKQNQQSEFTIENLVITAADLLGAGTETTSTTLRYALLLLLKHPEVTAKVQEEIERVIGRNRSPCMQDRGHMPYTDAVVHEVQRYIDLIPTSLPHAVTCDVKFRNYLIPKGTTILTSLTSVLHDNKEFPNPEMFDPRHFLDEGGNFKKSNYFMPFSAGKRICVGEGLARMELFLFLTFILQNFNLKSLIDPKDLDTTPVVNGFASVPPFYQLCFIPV

[7] = biological target: T1, Voltage-dependent T-type calcium channel subunit alpha-1H; test: Inhibition of Cav3.2 (unknown origin) assessed as suppression of KCl-evoked current by whole-cell patch clamp method
Rattus norvegicus [8] = test: Analgesic activity in Sprague-Dawley rat L5/L6 spinal nerve ligation-induced neuropathic pain model assessed as decrease in paw withdrawal threshold to non-noxious cold stimuli at 100 mg/kg, po measured after 1 hr; format: functional, organism-based
CYP1A2 = biological target: T3, CYP1A2 (Homo sapiens, UniProt P05177); test: Inhibition of CYP1A2 (unknown origin) assessed as residual activity at 10 uM relative to control; format: ADME; details: read-out: Activity
T3 sequence (P05177 whole entry): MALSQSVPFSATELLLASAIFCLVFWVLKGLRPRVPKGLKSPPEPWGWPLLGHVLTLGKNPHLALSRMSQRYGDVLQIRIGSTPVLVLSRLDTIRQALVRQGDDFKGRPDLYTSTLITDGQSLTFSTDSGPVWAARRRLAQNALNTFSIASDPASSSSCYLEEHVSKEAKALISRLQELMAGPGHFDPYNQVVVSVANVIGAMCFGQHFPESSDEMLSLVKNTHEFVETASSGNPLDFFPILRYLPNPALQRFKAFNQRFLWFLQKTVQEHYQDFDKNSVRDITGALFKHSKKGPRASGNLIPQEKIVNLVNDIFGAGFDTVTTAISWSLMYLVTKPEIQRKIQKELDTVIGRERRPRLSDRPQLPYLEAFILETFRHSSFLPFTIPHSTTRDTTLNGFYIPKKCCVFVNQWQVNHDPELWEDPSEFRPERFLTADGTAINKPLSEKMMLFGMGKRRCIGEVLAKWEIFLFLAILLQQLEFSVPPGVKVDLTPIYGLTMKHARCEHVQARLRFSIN

CYP3A4 = CYP3A4 (Homo sapiens, UniProt P08684); test: Inhibition of CYP3A4 (unknown origin) assessed as residual activity at 10 uM relative to control; format: ADME; details: read-out: Activity
Chain of CYP3A4 (P08684 whole entry): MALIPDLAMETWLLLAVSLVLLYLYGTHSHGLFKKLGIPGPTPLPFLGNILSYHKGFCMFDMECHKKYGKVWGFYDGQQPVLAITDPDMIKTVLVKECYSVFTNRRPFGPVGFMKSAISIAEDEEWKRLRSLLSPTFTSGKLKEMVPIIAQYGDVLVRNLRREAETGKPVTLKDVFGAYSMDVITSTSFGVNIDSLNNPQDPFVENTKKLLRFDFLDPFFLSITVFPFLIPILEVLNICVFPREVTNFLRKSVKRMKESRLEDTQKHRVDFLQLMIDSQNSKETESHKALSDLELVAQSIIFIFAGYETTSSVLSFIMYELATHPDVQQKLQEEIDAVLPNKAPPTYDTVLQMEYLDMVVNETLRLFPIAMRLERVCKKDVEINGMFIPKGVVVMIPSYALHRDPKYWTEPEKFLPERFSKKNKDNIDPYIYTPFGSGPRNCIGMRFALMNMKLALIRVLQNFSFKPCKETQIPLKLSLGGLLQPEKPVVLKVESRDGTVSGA

CYP2C9 = CYP2C9 (Homo sapiens, UniProt P11712); test: Inhibition of CYP2C9 (unknown origin) assessed as residual activity at 10 uM relative to control; format: ADME; details: read-out: Activity
Chain of CYP2C9 (P11712 whole entry): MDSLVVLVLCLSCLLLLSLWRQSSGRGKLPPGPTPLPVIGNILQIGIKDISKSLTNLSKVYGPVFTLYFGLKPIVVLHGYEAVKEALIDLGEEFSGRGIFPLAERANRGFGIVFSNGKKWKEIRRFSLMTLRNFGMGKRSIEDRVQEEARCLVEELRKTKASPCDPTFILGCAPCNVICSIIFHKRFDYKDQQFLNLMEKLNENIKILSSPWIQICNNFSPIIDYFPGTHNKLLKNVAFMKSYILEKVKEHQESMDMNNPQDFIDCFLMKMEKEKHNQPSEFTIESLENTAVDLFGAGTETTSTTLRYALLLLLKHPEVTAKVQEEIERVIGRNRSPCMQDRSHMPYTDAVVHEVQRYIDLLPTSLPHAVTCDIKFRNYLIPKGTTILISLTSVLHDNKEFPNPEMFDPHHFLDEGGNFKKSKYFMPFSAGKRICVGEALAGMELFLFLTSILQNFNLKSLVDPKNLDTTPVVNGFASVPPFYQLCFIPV

CYP2D6 = CYP2D6 (Homo sapiens, UniProt P10635); test: Inhibition of CYP2D6 (unknown origin) assessed as residual activity at 10 uM relative to control; format: ADME; details: read-out: Activity
[9] = biological target: T2, Voltage-dependent T-type calcium channel subunit alpha-1G; test: Inhibition of recombinant human Cav3.1 expressed in HEK293 cells assessed as suppression of KCl-evoked current by whole-cell patch clamp method; format: cell-based

Row | SMILES | inhibition [1] [%] | inhibition [2] [%] | remaining at 0.5 h [3] [%] | IC50 [4] [nM] | also measured
1 | CC(C)c1cc(C(=O)NC[C@H]2CCNC2)on1 | 8.36 | 11.4 |  |  | 
2 | CC(C)c1cc(C(=O)NC[C@H]2CCN(CCc3ccc(OC(F)(F)F)c(F)c3)C2)on1 | 59.7 | 36.4 | 35.2 | 160 | 
3 | CC(C)c1cc(C(=O)NC[C@H]2CCN(CCC(C)(C)C)C2)on1 | 21.1 | 23.3 |  |  | 
4 | COC(=O)C1=C(C)NC(C)=C(C(=O)NC[C@H]2CCN(CCc3ccc(Cl)c(F)c3)C2)C1c1cccc([N+](=O)[O-])c1 (stereo not given in full) | 69.7 | 80.3 | 2.13 | 330 | 
5 | CC(C)c1cc(C(=O)NC[C@H]2CCN(CCc3ccc(C(F)(F)F)cc3)C2)on1 | 63.2 | 48.7 | 34.2 |  | 
6 | NCC1(CC(=O)O)CCCCC1 |  |  |  |  | Activity (Rattus norvegicus [5]): Active; Activity (Rattus norvegicus [6]): Active
7 | CC(C)c1cc(C(=O)NC[C@H]2CCN(CCc3ccc(Cl)c(F)c3)C2)on1 | 50.1 | 59.9 | 26.2 | 1520 | 
8 | COC(=O)C1=C(C)NC(C)=C(C(=O)NC[C@H]2CCN(CCc3ccc(OC(F)(F)F)c(F)c3)C2)C1c1cccc([N+](=O)[O-])c1 (stereo not given in full) | 33.7 | 26.4 | 0.25 | 1470 | 
9 | COC(=O)C1=C(C)NC(C)=C(C(=O)NC[C@H]2CCN(CCc3ccc(C(F)(F)F)cc3)C2)C1c1cccc([N+](=O)[O-])c1 (stereo not given in full) | 34.1 | 43.5 | 2.01 | 1480 | 
10 | CC(C)c1cc(C(=O)NC[C@H]2CCN(Cc3cccnc3)C2)on1 | 11.6 | 2.4 |  |  | 
11 | CC(C)c1cc(C(=O)NC[C@H]2CCN(C(=O)CC(C)(C)C)C2)on1 | 17.8 | 23.1 |  |  | 
12 | COC(=O)C1=C(C)NC(C)=C(C(=O)NC[C@H]2CCN(CCc3ccc(Cl)c(Cl)c3)C2)C1c1cccc([N+](=O)[O-])c1 (stereo not given in full) | 31.3 | 32.5 | 2.87 |  | 
13 | CC(C)c1cc(C(=O)NC[C@H]2CCN(CCc3ccc(Cl)c(Cl)c3)C2)on1 | 69.7 | 71.7 | 51.7 | 1530 | 
14 | COC(=O)C1=C(C)NC(C)=C(C(=O)NC[C@H]2CCNC2)C1c1cccc([N+](=O)[O-])c1 (stereo not given in full) | 21.8 | 5.49 |  |  | 
15 | COC(=O)C1=C(C)NC(C)=C(C(=O)NC[C@H]2CCN(CCc3ccc(C)c(C(F)(F)F)c3)C2)C1c1cccc([N+](=O)[O-])c1 (stereo not given in full) | 65.2 | 78.3 | 0.63 | 2700 | 
16 | Cc1ccc(CCN2CC[C@H](CNC(=O)c3cc(C(C)C)no3)C2)cc1C(F)(F)F | 51.9 | 46.8 | 39.8 | 1900 | activity at 10 µM (CYP2C19): 50.4%; IC50 [7]: 7610 nM; Activity (Rattus norvegicus [5]): Active; Activity (Rattus norvegicus [8]): Active; Activity (Rattus norvegicus [6]): 80%; activity at 10 µM (CYP1A2): 88.1%; activity at 10 µM (CYP3A4): 33%; activity at 10 µM (CYP2C9): 53.9%; activity at 10 µM (CYP2D6): 31.2%; IC50 [9]: 5130 nM
